These results are taken from patent publication US20240115654A1, “INTRAVENOUS ADMINISTRATION OF ENGINEERED ANTIMICROBIAL AMPHIPHILIC PEPTIDES” (priority 2021, published 2024).

For the series the following is noted: mice.

Like-named read-outs stand apart in the source and are kept apart here. Peptide text beside a SMILES is read from it.

From the text: Male CD-1 mice will be received from an approved vendor and allowed to acclimate for a minimum of two days. Fasting will be not required.
All dosing syringes will be weighed prior to and following dosing. IV doses will be administered as a slow bolus (over ˜30 seconds) via direct venipuncture of a tail vein. All animals will be observed at dosing and each scheduled collection. All abnormalities will be recorded.
Terminal blood samples will be collected via cardiac puncture following inhalation anesthesia.
Sample Processing and Storage: Blood samples will be collected into K2EDTA tubes and stored on wet ice. Whole blood will be processed to plasma by centrifugation (3500 rpm at 5° C.) within 30 minutes of collection. Plasma samples will be split into 2 equal aliquots and each transferred into 96 well plates (matrix tubes) and stored at −80° C. until analysis. Administered doses will be determined gravimetrically.
Prior to extraction, a known concentration of a mass-adjusted internal standard (IS) will be added to assess recovery and allow for quantitation. Purified samples will be further subjected to high-performance liquid chromatography (HPLC) using C18 300 or 130 angstrom columns prior to MS/MS analysis. Multiple charge states will be observed by MS, so MS/MS will be employed to enable multiple reaction monitoring (MRM) analyses to determine the most MRM transitions with the highest signal-to-noise gain. Compound plasma concentrations will be determined by comparing to and compensating with co-purified IS peak intensity and validated calibrated standard curves.
Pharmacokinetic parameters will be calculated using non-compartmental methods as implemented in the Phoenix® WinNonlin® ver. 6.3 comprehensive TK/PK analysis software program (Pharsight Corporation; Mountain View, CA) using an IV infusion model. Pharmacokinetic analysis will be conducted using a 30-minute intravenous infusion time. Therefore, 30 minutes will be added to each sample time point postdose to obtain nominal time for TK analysis. Nominal times and dosage levels will be used for all calculations. Values below the lower limit of quantitation (BLQ) will be assigned a value of zero for the pharmacokinetic calculations. Microsoft® Excel® 2013 will be used for receipt of bioanalytical data, minor formatting, including setting BLQ values to “0”, transfer into WinNonlin® for PK analysis, and calculation of the mean when an approximated value will be excluded. All plasma concentration data from all animals will be included in the analysis. Graphical presentations will be performed using Microsoft® Excel® 2013.

Consider `CC(C)[C@H](NC(=O)[C@H](Cc1c[nH]c2ccccc12)NC(=O)[C@H](CCCNC(=N)N)NC(=O)[C@H](CCCNC(=N)N)NC(=O)[C@@H](NC(=O)[C@@H](NC(=O)[C@H](CCCNC(=N)N)NC(=O)[C@@H](NC(=O)[C@@H](NC(=O)[C@H](CCCNC(=N)N)NC(=O)[C@H](CCCNC(=N)N)NC(=O)[C@H](Cc1c[nH]c2ccccc12)NC(=O)[C@@H](NC(=O)[C@H](CCCNC(=N)N)NC(=O)[C@H](CCCNC(=N)N)NC(=O)[C@@H](NC(=O)[C@H](CCCNC(=N)N)NC(=O)[C@H](CCCNC(=N)N)NC(=O)[C@@H](NC(=O)[C@H](Cc1c[nH]c2ccccc12)NC(=O)[C@H](CCCNC(=N)N)NC(=O)[C@@H](N)CCCNC(=N)N)C(C)C)C(C)C)C(C)C)C(C)C)C(C)C)C(C)C)C(C)C)C(=O)N[C@@H](CCCNC(=N)N)C(=O)N[C@@H](CCCNC(=N)N)C(N)=O` [SEQ ID NO: 1] (H-RRWVRRVRRVWRRVVRVVRRWVRR-NH2), for which, under “3 mg/kg IV”, the AUCinf is less than 3500 ng·h/mL; the CL was roughly 5 mL/min/kg; the Extrapolated is on record as roughly 0.5%; the MRT last (as a rule, a mean duration of stay, worked out from the concentration-time curve) is roughly 0.5 h. Under “3 mg/kg IV”, the T1/2 is roughly 8 h; the Vss (in general, the apparent volume that relates the amount in the body to the concentration in plasma or blood) is roughly 0.2 L/kg; the distribution volume (Vz) – broadly, the apparent volume that relates the amount in the body to the concentration in plasma or blood – was roughly 3 L/kg. Where the note is “15 mg/kg IV”, the AUCinf_D came out at 3589 kg·ng·h/mL/ng and the Extrapolated is 0.49%.
